The results in this text go back to patent publication US20240269104A1, “METHOD FOR TREATING PARKINSON'S DISEASE” (Olatec Therapeutics, Inc., priority 2021, published 2024).

Assay [1] has as its system IL-1α. The experiment in a line: IL-1α in LPS-stimulated cultured splenocytes from MPTP-injected mice. The format is in vivo. The conditions noted are these: mice treated 200 mg/kg for seven days; splenocytes cultured with LPS, cell lysate. Here is the method:
(§1) Seven days after MPTP-acute administration, peripheral blood and spleen were isolated from each mouse, and hematological changes in the peripheral blood and cytokine production in the spleen were evaluated. […] White blood cells, lymphocytes, monocytes, and granulocytes were measured from the peripheral blood using a HemaTrue cell counter (Heska, Loveland, CO). Spleens were isolated and mechanically passed through a 70 μm cell strainer (ThermoFisher) in PBS. Cells were plated in a 96-well plate at a concentration of 200,000 cells/well in RPMI medium (Coring, New York, NY) with 10% FBS. After that, cells were stimulated with LPS at 1 μg/ml and 5 μg/ml. RPMI medium was used as control. After 72 hours, supernatant was isolated to measure the levels of IL-6. Cells were lysed with RIPA buffer (ThermoFisher) supplemented with protease inhibitor (ThermoFisher) to measure IL-1α levels. In both cases, 5-6 mice per group were used.

Assay [2] concerns IL-6. The experiment in a line: IL-6 in LPS-stimulated cultured splenocytes from MPTP-injected mice. The format is in vivo. The conditions noted are these: mice treated 200 mg/kg for seven days; splenocytes cultured with LPS, supernatant. How it is done: as §1

Regarding `CS(=O)(=O)CCC#N` [dapansutrile, 3-methanesulfonylpropionitrile], the “reduction of the level of intracellular IL-1α in splenocytes” value in assay [1] is reported as 40%. Further, the “IL-6 production by splenocytes” value in assay [2] was “restoring the effects of MPTP”.
